Source: patent US20090018194A1, “Use of antimicrobial agents derived from alliaceous plants for the prevention and control of crop diseases, post-harvest rot and as environmental disinifectant products” (DMC Research Center, S.L., priority 2007, published 2009)

Key:
Rhizopus stolonifer = test: disinfection of containers stored inside the rooms by fogging
[1] = system: Listeria innocua CECT 4030; test: agar diffusion test with impregnated cellulose discs; assay type: cell-based; conditions: incl. 6 mm disc
[2] = system: plants inoculated with mycorrhizal fungi; conditions: in vivo
[3] = system: the most characteristic diseases that affect these crops; test: in vivo tests against pre-harvest diseases in various crops (Table 7); conditions: pre-harvest diseases and pathogens listed in Table 7
Description: B. Likewise, numerous tests were conducted “in vivo” to determine the effectiveness of the products for pre- and post-harvest treatments, and also as disinfectant agents for agricultural soils and facilities in the food processing industries.
In post-harvest treatments, tests were conducted in strawberries, citrus fruits, stone fruits and tropical fruits. Tests were also conducted on vegetable plants in a greenhouse (tomatoes, melons, zucchini, peppers, cucumbers and green beans).

[4] = system: Escherichia coli ATCC 25922; test: agar diffusion test with impregnated cellulose discs; assay type: cell-based; conditions: incl. 6 mm disc
[5] = system: mixture of fungi (P. expansum, P. italicum, P. digitatum and A. alternata); test: disinfection of rooms by means of fogging
R. stolonifer = test: disinfection of artificially contaminated containers by drencher; set-up: species or system Rhizopus stolonifer; conditions: drencher 30 seconds
Description: A test of the disinfection of containers (fruit boxes and crates) was conducted in which a level of artificial contamination was created by means of controlled inoculation, with the objective of determining optimum doses of application to achieve a satisfactory disinfection. First the containers (made of wood and plastic) were disinfected with sodium hypochlorite, and they were then artificially contaminated via controlled inoculations with different fungi characteristic of the fruit and vegetable processing sector. For this purpose, isolated wild strains were used which, after sporulation, were collected to create a suspension of mixed spores of various fungi (Penicillium expansum, Penicillium italicum, Penicillium digitarum and Alternario alternata) and, separately in simultaneous tests (as a result of its higher rate of growth and its invasive character), a suspension of Rhizopus stolonifer. […] After this fogging, the containers were allowed to dry. The containers were then sampled to determine the level of initial contamination achieved (by means of contact plates containing Rose Bengal agar). The containers were then treated in a pilot line […]. The hold time of the containers under the showers was 30 seconds, and the test doses were 750 ppm and 1050 ppm for PTS and 2000 ppm and 5000 ppm in the case of PTSO. After exiting the showers, the treated containers were allowed to dry, and were again sampled using contact plates with Rose Bengal agar to determine the final level of contamination. The sampling unit was 3 containers and 3 plates per repetition.

[6] = system: Bacillus subtilis ATCC 6633; test: agar diffusion test with impregnated cellulose discs; assay type: cell-based; conditions: incl. 6 mm disc
[7] = system: Ralstonia solanacearum Strain GM1000; assay type: cell-based; conditions: in vitro tests
fungal population = test: disinfection by drencher of naturally contaminated containers of a citrus fruit processing plant
Leveillula taurica = test: control of powdery mildew in peppers grown in greenhouses; assay type: in vivo; conditions: doses of 1000 and 2000 ppm; peppers in greenhouse; reference Ciproconazol/Triadimenol
Description: Some of these tests were especially significant, such as the result against powdery mildew in peppers grown in greenhouses in Almeria. The relevance of the data obtained is based on the scarcity of effective and non-synthetic systems that control this disease (caused by Leveillula taurica).
In the case of this test, spray guns were used, via the greenhouse irrigation system, to apply solutions of 1000 ppm and 2000 ppm of PTS and PTSO, with a nutrient broth volume of 20, 30, 40 l/parcel, depending on the application. These solutions were distributed in parcels of 4 rows, located in the zone of the greenhouse with a greater incidence of powdery mildew, while a reference product was applied in the rest of the warehouse: Ciproconazol (Caddy 10 WG at 10 gr/100 l) for the first and second application, Triadimenol (Bayfidan 25 EC at 25 ml/100 l) for the third application and Ciproconazol/Triadimenol for the final application.

Penicillium digitatum = test: reduction of spores in suspension in absence or presence of organic matter; assay type: cell-based
Description: (§1) In addition, under the real conditions of a disinfecting bath for boxes, crates and containers, as well as for the disinfection of rooms and work surfaces, organic material (soil residue, rotten fruit, leaves etc.) is generally present, which can reduce the action of the disinfectant agent. Therefore, the effectiveness of PTS and PTSO has also been assessed in the presence of organic matter on two pathogens that cause post-harvest rot of stone fruit (Penicillium expansum) and citrus fruit (Penicillium digitatum).

Penicillium expansum = test: as above; assay type: cell-based
Description: as §1

[8] = system: Bacillus cereus ATCC 10876; test: agar diffusion test with impregnated cellulose discs; assay type: cell-based; conditions: incl. 6 mm disc
[9] = PTSO 2000 ppm 1 min., organic matter Absence, 0 hours
[10] = PTSO 2000 ppm 1 min., organic matter Absence, 1 hour
[11] = PTSO 2000 ppm 1 min., organic matter Absence, 2 hours
[12] = PTSO 2000 ppm 1 min., organic matter Absence, 3 hours
[13] = PTSO 2000 ppm 1 min., organic matter Presence, 0 hours
[14] = PTSO 2000 ppm 1 min., organic matter Presence, 1 hour
[15] = PTSO 2000 ppm 1 min., organic matter Presence, 2 hours
[16] = PTSO 2000 ppm 1 min., organic matter Presence, 3 hours
[17] = PTS 750 ppm 1 min., organic matter Absence, 0 hours
[18] = PTS 750 ppm 1 min., organic matter Absence, 1 hour
[19] = PTS 750 ppm 1 min., organic matter Absence, 2 hours
[20] = PTS 750 ppm 1 min., organic matter Absence, 3 hours
[21] = PTS 750 ppm 1 min., organic matter Presence, 0 hours
[22] = PTS 750 ppm 1 min., organic matter Presence, 1 hour
[23] = PTS 750 ppm 1 min., organic matter Presence, 2 hours
[24] = PTS 750 ppm 1 min., organic matter Presence, 3 hours

CCCSS(=O)(=O)CCC [PTSO, Propyl Propyl Thiosulfonate]
Reduction of the population (%) (Rhizopus stolonifer; 2000 ppm, Plastic container): 77%
Reduction of the population (%) (Rhizopus stolonifer; 2000 ppm, Wood container): 78%
Reduction of the population (%) (Rhizopus stolonifer; 5000 ppm, Plastic container): 71%
Reduction of the population (%) (Rhizopus stolonifer; 5000 ppm, Wood container): 56%
diameter of the microbial inhibition halo ([1]; 60 ppm): 13 mm
diameter of the microbial inhibition halo ([1]; 125 ppm): 20 mm
diameter of the microbial inhibition halo ([1]; 250 ppm): 35 mm
diameter of the microbial inhibition halo ([1]; 500 ppm): 43 mm
diameter of the microbial inhibition halo ([1]; 1000 ppm): 52 mm
phytotoxicity to the plant [2]: did not suffer phytotoxicity
control capability against the most characteristic diseases of the crops (in words) [3]: high control capability
diameter of the microbial inhibition halo ([4]; 60 ppm): 18 mm
diameter of the microbial inhibition halo ([4]; 125 ppm): 19 mm
diameter of the microbial inhibition halo ([4]; 250 ppm): 26 mm
diameter of the microbial inhibition halo ([4]; 500 ppm): 27 mm
diameter of the microbial inhibition halo ([4]; 1000 ppm): 29 mm
Reduction in the population of the mixture of fungi expressed in % ([5]; 2000 ppm, Environment): 100%
Reduction in the population of the mixture of fungi expressed in % ([5]; 2000 ppm, Walls): 95%
Reduction in the population of the mixture of fungi expressed in % ([5]; 5000 ppm, Environment): 100%
Reduction in the population of the mixture of fungi expressed in % ([5]; 5000 ppm, Walls): 100%
Reduction of the population (%) (R. stolonifer; 2000 ppm, Plastic container): 100%
Reduction of the population (%) (R. stolonifer; 2000 ppm, Wood container): 96%
Reduction of the population (%) (R. stolonifer; 5000 ppm, Plastic container): 100%
Reduction of the population (%) (R. stolonifer; 5000 ppm, Wood container): 98%
diameter of the microbial inhibition halo ([6]; 60 ppm): 27 mm
diameter of the microbial inhibition halo ([6]; 125 ppm): 36 mm
diameter of the microbial inhibition halo ([6]; 250 ppm): 42 mm
diameter of the microbial inhibition halo ([6]; 500 ppm): 50 mm
diameter of the microbial inhibition halo ([6]; 1000 ppm): 68 mm
effectiveness of the application (in words) [7]: highly effective
Reduction of the fungal population (%) (fungal population; PTSO 2000 ppm, Bottom of the pallet, Beginning of bath): 93%
Reduction of the fungal population (%) (fungal population; PTSO 2000 ppm, Bottom of the pallet, End of bath): 96%
Reduction of the fungal population (%) (fungal population; PTSO 2000 ppm, Side of the pallet, Beginning of bath): 100%
Reduction of the fungal population (%) (fungal population; PTSO 2000 ppm, Side of the pallet, End of bath): 87%
control of powdery mildew, as % of the effectiveness of the reference product (Leveillula taurica): slightly lower
Reduction of the population (%) (Penicillium digitatum; [9]): 100%
Reduction of the population (%) (Penicillium digitatum; [10]): 100%
Reduction of the population (%) (Penicillium digitatum; [11]): 100%
Reduction of the population (%) (Penicillium digitatum; [12]): 100%
Reduction of the population (%) (Penicillium digitatum; [13]): 100%
Reduction of the population (%) (Penicillium digitatum; [14]): 100%
Reduction of the population (%) (Penicillium digitatum; [15]): 100%
Reduction of the population (%) (Penicillium digitatum; [16]): 100%
Reduction of the population (%) (Penicillium expansum; [9]): 100%
Reduction of the population (%) (Penicillium expansum; [10]): 100%
Reduction of the population (%) (Penicillium expansum; [11]): 100%
Reduction of the population (%) (Penicillium expansum; [12]): 100%
Reduction of the population (%) (Penicillium expansum; [13]): 100%
Reduction of the population (%) (Penicillium expansum; [14]): 100%
Reduction of the population (%) (Penicillium expansum; [15]): 100%
Reduction of the population (%) (Penicillium expansum; [16]): 85%
diameter of the microbial inhibition halo ([8]; 60 ppm): 25 mm
diameter of the microbial inhibition halo ([8]; 125 ppm): 35 mm
diameter of the microbial inhibition halo ([8]; 250 ppm): 45 mm
diameter of the microbial inhibition halo ([8]; 500 ppm): 47 mm
diameter of the microbial inhibition halo ([8]; 1000 ppm): 49 mm

CCCS[S+]([O-])CCC (stereo not drawn) [PTS, Propyl Propyl Thiosulfinate]
Reduction of the population (%) (Rhizopus stolonifer; 750 ppm, Plastic container): 36%
Reduction of the population (%) (Rhizopus stolonifer; 1050 ppm, Plastic container): 27%
Reduction of the population (%) (Rhizopus stolonifer; 1050 ppm, Wood container): 26%
diameter of the microbial inhibition halo ([1]; 60 ppm): 13 mm
diameter of the microbial inhibition halo ([1]; 125 ppm): 23 mm
diameter of the microbial inhibition halo ([1]; 250 ppm): 32 mm
diameter of the microbial inhibition halo ([1]; 500 ppm): 37 mm
diameter of the microbial inhibition halo ([1]; 1000 ppm): 40 mm
phytotoxicity to the plant [2]: did not suffer phytotoxicity
control capability against the most characteristic diseases of the crops (in words) [3]: high control capability
diameter of the microbial inhibition halo ([4]; 60 ppm): 12 mm
diameter of the microbial inhibition halo ([4]; 125 ppm): 17 mm
diameter of the microbial inhibition halo ([4]; 250 ppm): 24 mm
diameter of the microbial inhibition halo ([4]; 500 ppm): 25 mm
diameter of the microbial inhibition halo ([4]; 1000 ppm): 27 mm
Reduction in the population of the mixture of fungi expressed in % ([5]; 750 ppm, Environment): 89%
Reduction in the population of the mixture of fungi expressed in % ([5]; 750 ppm, Walls): 96%
Reduction in the population of the mixture of fungi expressed in % ([5]; 1050 ppm, Environment): 100%
Reduction in the population of the mixture of fungi expressed in % ([5]; 1050 ppm, Walls): 97%
Reduction of the population (%) (R. stolonifer; 750 ppm, Plastic container): 100%
Reduction of the population (%) (R. stolonifer; 750 ppm, Wood container): 94%
Reduction of the population (%) (R. stolonifer; 1050 ppm, Plastic container): 99%
Reduction of the population (%) (R. stolonifer; 1050 ppm, Wood container): 100%
diameter of the microbial inhibition halo ([6]; 60 ppm): 32 mm
diameter of the microbial inhibition halo ([6]; 125 ppm): 35 mm
diameter of the microbial inhibition halo ([6]; 250 ppm): 40 mm
diameter of the microbial inhibition halo ([6]; 500 ppm): 55 mm
diameter of the microbial inhibition halo ([6]; 1000 ppm): 55 mm
effectiveness of the application (in words) [7]: highly effective
Reduction of the fungal population (%) (fungal population; PTS 750 mm, Bottom of the pallet, Beginning of bath): 87%
Reduction of the fungal population (%) (fungal population; PTS 750 mm, Bottom of the pallet, End of bath): 79%
Reduction of the fungal population (%) (fungal population; PTS 750 mm, Side of the pallet, Beginning of bath): 97%
Reduction of the fungal population (%) (fungal population; PTS 750 mm, Side of the pallet, End of bath): 100%
control of powdery mildew, as % of the effectiveness of the reference product (Leveillula taurica): 92%
Reduction of the population (%) (Penicillium digitatum; [17]): 100%
Reduction of the population (%) (Penicillium digitatum; [18]): 100%
Reduction of the population (%) (Penicillium digitatum; [19]): 100%
Reduction of the population (%) (Penicillium digitatum; [20]): 100%
Reduction of the population (%) (Penicillium digitatum; [21]): 100%
Reduction of the population (%) (Penicillium digitatum; [22]): 100%
Reduction of the population (%) (Penicillium digitatum; [23]): 100%
Reduction of the population (%) (Penicillium digitatum; [24]): 100%
Reduction of the population (%) (Penicillium expansum; [17]): 68%
Reduction of the population (%) (Penicillium expansum; [18]): 82%
Reduction of the population (%) (Penicillium expansum; [19]): 45%
Reduction of the population (%) (Penicillium expansum; [20]): 68%
Reduction of the population (%) (Penicillium expansum; [21]): 73%
Reduction of the population (%) (Penicillium expansum; [22]): 41%
Reduction of the population (%) (Penicillium expansum; [23]): 36%
Reduction of the population (%) (Penicillium expansum; [24]): 18%
diameter of the microbial inhibition halo ([8]; 60 ppm): 15 mm
diameter of the microbial inhibition halo ([8]; 125 ppm): 20 mm
diameter of the microbial inhibition halo ([8]; 250 ppm): 25 mm
diameter of the microbial inhibition halo ([8]; 500 ppm): 27 mm
diameter of the microbial inhibition halo ([8]; 1000 ppm): 35 mm
